These results are taken from patent US8859571B2, “Quinazoline compounds” (GlaxoSmithKline LLC, priority 2009, dated 2014).

“And” between values parts separate entries of the source, which are not always exact repeats. Equal entries are not always repeated. Structures can show the parent of a compound that is named as a salt.

This assay concerns the target T1, Full length human TNNI3K (hTNNI3K) (Homo sapiens, UniProt Q59H18).
T1 construct: His-MBP-TEV-Full length human TNNI3K (hTNNI3K); His (N); MBP (N); TEV cleavage site (N); made in house; host or cells: baculovirus system (printed 'Baculokinase system')
T1 sequence (Q59H18 1-835): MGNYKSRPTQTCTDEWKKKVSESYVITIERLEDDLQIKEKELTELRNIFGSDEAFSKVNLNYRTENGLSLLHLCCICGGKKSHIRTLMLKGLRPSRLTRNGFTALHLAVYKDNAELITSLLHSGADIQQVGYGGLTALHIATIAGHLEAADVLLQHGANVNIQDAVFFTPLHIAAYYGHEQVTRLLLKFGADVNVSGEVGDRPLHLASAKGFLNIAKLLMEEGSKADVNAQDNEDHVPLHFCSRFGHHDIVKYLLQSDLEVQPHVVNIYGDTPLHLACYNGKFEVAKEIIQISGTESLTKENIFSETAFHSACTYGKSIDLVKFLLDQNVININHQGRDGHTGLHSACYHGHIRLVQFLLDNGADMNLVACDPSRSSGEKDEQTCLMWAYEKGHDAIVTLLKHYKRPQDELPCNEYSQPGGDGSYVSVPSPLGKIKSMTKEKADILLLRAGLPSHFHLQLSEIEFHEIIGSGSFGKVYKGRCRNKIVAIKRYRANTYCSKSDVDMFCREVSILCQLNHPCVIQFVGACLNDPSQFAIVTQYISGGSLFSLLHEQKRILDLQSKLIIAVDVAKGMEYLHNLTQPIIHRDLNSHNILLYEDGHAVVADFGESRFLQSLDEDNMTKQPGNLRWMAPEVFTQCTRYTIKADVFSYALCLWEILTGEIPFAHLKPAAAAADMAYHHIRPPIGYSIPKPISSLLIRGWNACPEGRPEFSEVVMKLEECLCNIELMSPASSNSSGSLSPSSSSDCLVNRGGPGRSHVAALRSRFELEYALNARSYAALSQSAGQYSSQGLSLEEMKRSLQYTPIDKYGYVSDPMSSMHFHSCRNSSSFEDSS
Put plainly: Fluorescent polarization assay of compound inhibition on hTNNI3K ATP binding (Biological Assay Method I). Particulars: displacement of fluorescent ligand from hTNNI3K ATP binding pocket; mean of a minimum of 2 experiments; read-out: pXC50 (the source's name) (converted). From the text:
Materials: His-MBP-TEV-Full length human TNNI3K (hTNNI3K) was expressed in Baculokinase system and purified from amylase affinity column followed by Superdex200. The fluorescent ligand 5-({[2-({[3-({4-[(5-hydroxy-2-methylphenyl)amino]-2-pyrimidinyl}amino)phenyl]carbonyl}amino)ethyl]amino}carbonyl)-2-(6-hydroxy-3-oxo-3H-xanthen-9-yl)benzoic acid was used. The preparation of this fluorescent ligand is disclosed in U.S. Provisional Patent Application No. 61/237,815 filed Aug. 28, 2009, the disclosure of which is incorporated by reference herein. The other buffer components, including MgCl2 (Catalog Number M1028), Bis-Tris (Catalog Number B7535), DTT (Catalog Number D9779) and Chaps (Catalog Number C3023) were purchased from Sigma-Aldrich.
Biological Assay Method I:
A fluorescent polarization assay was used to determine does response of compound inhibition on hTNNI3K ATP binding.
Solution 1: Ten (10) mL of a 5 nM 5-({[2-({[3-({4-[(5-hydroxy-2-methylphenyl)amino]-2-pyrimidinyl}amino)phenyl]carbonyl}amino)ethyl]amino}carbonyl)-2-(6-hydroxy-3-oxo-3H-xanthen-9-yl)benzoic acid solution (Solution 1) was prepared by mixing 5 μL of 1M DTT and 80 μL of 10% (w/v) Chaps and 5 μL of a 10 μM 5-({[2-({[3-({4-[(5-hydroxy-2-methylphenyl)amino]-2-pyrimidinyl}amino)phenyl]carbonyl}amino) ethyl]amino}carbonyl)-2-(6-hydroxy-3-oxo-3H-xanthen-9-yl)benzoic acid stock solution into 9910 μL buffer (20 mM Tris, 15 mM MgCl2, pH 7.5). (Stock solution: 10 μM solution of 5-({[2-({[3-({4-[(5-hydroxy-2-methylphenyl)amino]-2-pyrimidinyl}amino)phenyl]carbonyl}amino)ethyl]amino}carbonyl)-2-(6-hydroxy-3-oxo-3H-xanthen-9-yl)benzoic acid in 100% DMSO)
Solution 2 was formed by mixing 53.8 μL of 2.6 μM hTNNI3K with a 6946.2 μL aliquot of Solution 1 (the above 5-({[2-({[3-({4-[(5-hydroxy-2-methylphenyl)amino]-2-pyrimidinyl}amino)phenyl]carbonyl}amino)ethyl]amino}carbonyl)-2-(6-hydroxy-3-oxo-3H-xanthen-9-yl)benzoic acid solution) to make up a 7 mL of mixture of hTNNI3K and 5-({[2-({[3-({4-[(5-hydroxy-2-methylphenyl)amino]-2-pyrimidinyl}amino)phenyl]carbonyl}amino)ethyl]amino}carbonyl)-2-(6-hydroxy-3-oxo-3H-xanthen-9-yl)benzoic acid (Solution 2).
Fifty (50) nL of inhibitors in DMSO (or DMSO controls) were stamped into a 384-well low volume Greiner black plate, followed by addition of 5 μL of Solution 1 to column 18 and 5 μL Solution 2 to columns 1-17 and 19-24 of the plate. The plate was then spun at 500 rpm for 30 seconds and incubated at room temperature for 60 minutes. After that, the fluorescent polarization was measured on Analyst (ex/em: 485/530 nm, Dichroic: 505). For dose response experiments, normalized data were fit by ABASE/XC50 and pXC50=(log((b−y)/(y−a)))/d−log(x), where x is the compound concentration and y is the % activity at specified compound concentration, a is the minimum % activity, b is the maximum % activity, and d is the Hill slope.
The pXC50s are averaged to determine a mean value, for a minimum of 2 experiments.
Turning to `CNS(=O)(=O)c1ccc(OC(C)C(F)(F)F)c(Nc2ncnc3cc(OC)cc(OC)c23)c1` (single isomer, unassigned) [Example 82, 3-{[5,7-bis(methyloxy)-4-quinazolinyl]amino}-N-methyl-4-[(2,2,2-trifluoro-1-methylethyl)oxy]benzenesulfonamide hydrochloride], the IC50 is 0.001 to 0.01 µM. `CNS(=O)(=O)c1ccc(N(C)C)c(Nc2ncnc3cc(OC)c(OC)cc23)c1` [Example 1, 3-{[6,7-bis(methyloxy)-4-quinazolinyl]amino}-4-(dimethylamino)-N-methylbenzenesulfonamide hydrochloride]: the IC50 was 0.01 to 0.1 µM. As to `CNS(=O)(=O)c1ccc(N2CCOCC2)c(Nc2ncnc3cc(OC)c(OC)cc23)c1` [Example 3, 3-{[6,7-bis(methyloxy)-4-quinazolinyl]amino}-N-methyl-4-(4-morpholinyl)benzenesulfonamide trifluoroacetate], the IC50 is 0.01 to 0.1 µM and ~0.0794 µM.

As for `CCN(C)c1ccc(S(=O)(=O)NC)cc1Nc1ncnc2cc(OC)c(OC)cc12` [Example 4, 3-{[6,7-bis(methyloxy)-4-quinazolinyl]amino}-4-[ethyl(methyl)amino]-N-methylbenzenesulfonamide], the IC50 was 0.01 to 0.1 µM. For the compound `CNS(=O)(=O)c1ccc(OC(C)C)c(Nc2ncnc3cc(OC)c(OC)cc23)c1` [Example 5, 3-{[6,7-bis(methyloxy)-4-quinazolinyl]amino}-N-methyl-4-[(1-methylethyl)oxy]benzenesulfonamide], the IC50 was 0.01 to 0.1 µM. For `CNS(=O)(=O)c1ccc(N(C)C)c(Nc2ncnc3ccc(OC)cc23)c1` [Example 10, 4-(dimethylamino)-N-methyl-3-{[6-(methyloxy)-4-quinazolinyl]amino}benzene sulfonamide trifluoroacetate], the IC50 was 0.01 to 0.1 µM.

For the compound `CNS(=O)(=O)c1ccc(OCC(F)(F)F)c(Nc2ncnc3cc(OC)c(OC)cc23)c1` [Example 11, 3-{[6,7-bis(methyloxy)-4-quinazolinyl]amino}-N-methyl-4-[(2,2,2-trifluoroethyl)oxy]benzenesulfonamide hydrochloride], the IC50 is 0.01 to 0.1 µM. Then `CNS(=O)(=O)c1ccc(N2CCC(F)(F)CC2)c(Nc2ncnc3cc(OC)c(OC)cc23)c1` [Example 14, 3-{[6,7-bis(methyloxy)-4-quinazolinyl]amino}-4-(4,4-difluoro-1-piperidinyl)-N-methylbenzenesulfonamide trifluoroacetate], with 0.01 to 0.1 µM. For `CNS(=O)(=O)c1ccc(N(C)C)c(Nc2ncnc3cc(OCCCCl)ccc23)c1` [Example 16, 3-({7-[(3-chloropropyl)oxy]-4-quinazolinyl}amino)-4-(dimethylamino)-N-methylbenzenesulfonamide], the IC50 was 0.01 to 0.1 µM.

Take `CNS(=O)(=O)c1ccc(N(C)C)c(Nc2ncnc3cc(OCCOC)c(OCCOC)cc23)c1` [Example 17, 3-[(6,7-bis{[2-(methyloxy)ethyl]oxy}-4-quinazolinyl)amino]-4-(dimethylamino)-N-methylbenzenesulfonamide trifluoroacetate]: the IC50 is 0.01 to 0.1 µM.

With `CNS(=O)(=O)c1ccc(OC)c(Nc2ncnc3cc(OCCOC)c(OCCOC)cc23)c1` [Example 18, 3-[(6,7-bis{[2-(methyloxy)ethyl]oxy}-4-quinazolinyl)amino]-N-methyl-4-(methyloxy) benzenesulfonamide hydrochloride], the IC50 is 0.01 to 0.1 µM. As for `CNS(=O)(=O)c1ccc(OCC(F)(F)F)c(Nc2ncnc3cc(OCCOC)c(OCCOC)cc23)c1` [Example 19, 3-[(6,7-bis{[2-(methyloxy)ethyl]oxy}-4-quinazolinyl)amino]-N-methyl-4-[(2,2,2-trifluoroethyl)oxy] benzenesulfonamide], the IC50 is 0.01 to 0.1 µM. Then `CNS(=O)(=O)c1ccc(SC)c(Nc2ncnc3cc(OCCOC)c(OCCOC)cc23)c1` [Example 20, 3-[(6,7-bis{[2-(methyloxy)ethyl]oxy}-4-quinazolinyl)amino]-N-methyl-4-(methylthio) benzenesulfonamide], with 0.01 to 0.1 µM.
